Data taken from patent US20240201172A1, “USE OF ODORANT RECEPTOR FOR SUPPRESSING LACTATE-INDUCED M2-TYPE DIFFERENTIATION OF TUMOR-ASSOCIATED MACROPHAGES AND TUMOR GROWTH” (KYUNGPOOK NATIONAL UNIVERSITY INDUSTRY-ACADEMIC COOPERATION …, priority 2021, published 2024).

Legend:
Format in all cases: cell-based
Olfr78/Gpr132 = target: T1, Olfr78/Gpr132 (Mus musculus, UniProt Q8VBV9+Q9Z282); assay: Luciferase assay in transfected Hana3A cells; settings: Hana3A cells cotransfected with Olfr78 and Gpr132 vs Olfr78 or Gpr132 alone, FIG. 6D
T1 construct: expressed in transfected cells; host or cells: Hana3A cells
T1 sequence (Q8VBV9 1-320): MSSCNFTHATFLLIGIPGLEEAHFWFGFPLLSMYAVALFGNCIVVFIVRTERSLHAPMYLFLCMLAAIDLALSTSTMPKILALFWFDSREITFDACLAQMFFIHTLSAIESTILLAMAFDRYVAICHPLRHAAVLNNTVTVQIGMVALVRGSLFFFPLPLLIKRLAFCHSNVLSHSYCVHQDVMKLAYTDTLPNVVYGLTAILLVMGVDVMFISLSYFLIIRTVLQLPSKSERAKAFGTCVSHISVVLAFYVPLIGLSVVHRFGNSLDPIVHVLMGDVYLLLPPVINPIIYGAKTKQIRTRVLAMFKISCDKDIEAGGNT
T1 sequence (Q9Z282 1-382): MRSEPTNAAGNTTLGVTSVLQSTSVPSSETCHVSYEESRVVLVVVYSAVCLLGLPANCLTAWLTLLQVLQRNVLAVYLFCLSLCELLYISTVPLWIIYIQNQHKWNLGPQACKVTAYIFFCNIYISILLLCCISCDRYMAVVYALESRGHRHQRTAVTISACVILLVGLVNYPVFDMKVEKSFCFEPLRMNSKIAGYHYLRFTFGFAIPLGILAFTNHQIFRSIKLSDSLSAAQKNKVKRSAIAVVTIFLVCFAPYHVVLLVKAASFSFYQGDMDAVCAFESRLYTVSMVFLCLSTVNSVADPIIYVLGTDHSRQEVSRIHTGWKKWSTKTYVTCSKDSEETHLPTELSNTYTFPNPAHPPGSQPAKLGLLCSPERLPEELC
Method: Luciferase assays were performed using the Dual-Glo™ Luciferase Assay System (Promega, Madison, WI). Briefly, Mock-, Olfr78−, Gpr132−, or Olfr78/Gpr132 transiently transfected Hana3A cells were stimulated with various concentrations of sodium lactate diluted in CD293 medium at 37° C. for 4 h. The activity of firefly luciferase was normalized against that of Renilla luciferase. Luminescence was measured on a SpectraMax L microplate reader (Molecular Devices, San Jose, CA).

[1] = system: THP-1 human immortalized monocytes; assay: M1/M2 polarization of PMA-treated THP-1 human monocytes; settings: for M1 markers such as iNOS, CD86, TNF-α, and IL-12B / M2 markers such as Arg-1, CD163, CD206, and IL-10: OR51E2-depleted THP1 cells vs untreated; for M1 markers such as iNOS, CD86, TNF-α, and IL-12B: FIGS. 3D, 3E, 3I-K; for M2 markers such as Arg-1, CD163, CD206, and IL-10: FIGS. 3D-H; for protein and mRNA levels of OR51E2: FIGS. 2B, 2C; for levels of M2 macrophage markers such as Arg1, CD206, CD163, and IL-10: FIGS. 2D-H
Method: (§1) Anti-CD11b, anti-CD3, anti-CD4, anti-CD8, anti-CD86, anti-F4/80, anti-CD206, anti-CD163, and anti-Gr1 antibodies were purchased from BioLegend (San Diego, CA). An anti-Olfr78 antibody was purchased from LSBio (Seattle, WA). Anti-CD206 and anti-CD86 antibody was purchased from Santa Cruz Biotechnology (Dallas, TX). Cells were fixed with 4% paraformaldehyde and then reacted with an untagged primary antibody or a dye-tagged antibody at 4° C. for 30 min in the dark. Cells treated with an untagged primary antibody (anti-Olfr78, anti-CD206, and anti-CD86) were washed and reacted with a dye-tagged secondary antibody. At least 10,000 or more events were analyzed using a flow cytometer (BD Bioscience, San Jose, CA). Data were evaluated using CellQuest Pro software (BD Biosciences). To prepare cell suspensions from tumor tissues, freshly excised tumors were fragmented into several pieces, minced into 2-3 mm^3 pieces, and reacted with collagenase D (Roche, Basel, Switzerland) and DNase (Sigma-Aldrich) at 37° C. for 40 min. The tissue samples were filtered through a 100 μm cell strainer (Falcon, Corning, NY) to collect digested cells. Collected cells were resuspended in phosphate-buffered saline containing FBS and subjected to flow cytometry.
(§2) Cells were lysed using QIAzol lysis reagent (Qiagen, Hilden, Germany). RNA was isolated from cell lysates using an miRNeasy Mini Kit (Qiagen) and subjected to qRT-PCR. Primers targeting Arg1, IL-10, IL-4, TGF-0, IL-12p40, IFN-γ, and R-actin were obtained from Bioneer Inc. (Daejeon, Korea). cDNA was synthesized using a PrimeScript 1st cDNA Synthesis Kit (Takara, Shiga, Japan). qPCR using SYBR Green (Qiagen) was performed on a real time cycler (Bio-Rad, Hercules, CA). R-Actin was used as an endogenous control. Data used to determine relative expression were analyzed according to the Livak method.
For coimmunoprecipitation assays, cells were lysed with M-PER Mammalian Protein Extraction Reagent (ThermoFisher Scientific, Waltham, MA). Cell lysates were reacted with 2 μg of an antibody against Olfr78 or Gpr132 at 4° C. overnight and then with 100 μl of protein A-agarose beads (ThermoFisher Scientific) at 4° C. for 4 h with agitation. The beads were boiled, and the eluates were subjected to Western blotting with an antibody against Olfr78 or Gpr132. 40 μg of protein was electrophoresed on a 10% SDS-PAGE gel and transferred to a membrane (MilliPore, Burlington, MA). The membrane was reacted with antibodies against iNOS (Abcam, Cambridge, UK), Arg1 (Abcam), and R-actin (Santa Cruz Biotechnology) at 4° C. overnight followed by secondary antibody at room temperature for 2 h, and then exposed to a chemiluminescence substrate (ThermoFisher Scientific). Signals were visualized using an LAS1000 enhanced chemiluminescence detection system (Fuji Film, Minato, Tokyo).
To examine the effect of ORs on M2 polarization of human macrophages, THP-1 human immortalized monocytes were treated with phorbol myristate acetate (PMA) and then with L+I, IL-4, TCM, or lactate.

BMDMs = assay: M1/M2 polarization of mouse BMDMs (flow cytometry, qRT-PCR, cell shape); settings: for Olfr78 expression: BMDMs differentiated into M2 or M1 macrophages, FIG. 1B
Method: BMDMs were isolated from tibias and femurs of C57BL6 or Balb/c mice and cultured in DMEM supplemented with 10 ng/mL macrophage colony-stimulating factor (Gibco, Carlsbad, CA) and 10% FBS for 7 d. The culture medium was changed every other day. For M1 polarization, BMDMs were cultured with 20 ng/mL recombinant mouse IFN-γ (R&D Systems) plus 100 ng/mL LPS for 24 to 48 h. For M2 polarization, BMDMs were cultured with 20 ng/mL recombinant mouse IL-4 for 24 to 48 h. For lactate-mediated M2 polarization, BMDMs were treated with 10 mM lactate (Sigma-Aldrich, St. Louis, MO) at 37° C. in a humidified atmosphere containing 5% CO2 for 24 to 48 h.
as §1, §2
To examine the involvement of Olfr78 in lactate-induced M2 polarization of macrophages, the present inventors conducted investigation on whether Olfr78 was expressed in BMDMs isolated from Olfr78^+/+ (WT) and Olfr78^−/− mice. […] Next, the present inventors differentiated BMDMs into M1 and M2 macrophages to investigate whether the expression level of Olfr78 was regulated according to macrophage polarization. Lactate, TCM, and IL-4 were used to stimulate M2 polarization, while lipopolysaccharide (LPS) plus interferon (IFN)-γ (L+I) was used to stimulate M1 polarization. […] To investigate the effect of Olfr78 on macrophage polarization, the present inventors measured the protein levels of M2 macrophage markers such as CD206 (FIG. 1C) and the mRNA levels of IL-4, IL-10, and TGF-β(FIGS. 1E-G), as well as M1 macrophage markers such as CD86 (FIG. 1D) and the mRNA levels of IL-12 and IFN-γ (FIGS. 1H and 1I) when WT and Olfr78^−/− BMDMs were differentiated into M1 and M2 macrophages. […] Next, the present inventors restored Olfr78 expression in Olfr78^−/− BMDMs by transfecting them with a Flag-tagged Olfr78 expression vector.

lactate dehydrogenase = assay: Lactate concentration in TCM of mouse tumor cell lines pretreated with oxamic acid; settings: pretreatment of mouse tumor cell lines, FIG. 4A
Method: The concentrations of lactate and acetate in TCM of cells cultured at 80% confluency were measured using lactate and acetate colorimetric assay kits (BioVision, Milpitas, CA). Briefly, 50 μL of TCM was mixed with lactate or acetate enzyme mix and the probe according to the manual and reacted for 30 min at room temperature. The concentrations of cytokines in the conditioned medium of macrophages were measured using cytokine ELISA kits (R&D Systems). Briefly, 100 μL of conditioned medium was added to plates precoated with antibodies against IL-4, IL-10, and TGF-β. Samples were reacted with corresponding antibodies conjugated to biotin and then with horseradish peroxidase-labeled streptavidin. Absorbance at 570 nm was measured using a microplate reader. The concentrations of lactate, acetate, and cytokines were calculated from the standard curves.
To determine, though lactate is known to be important in M2 macrophage polarization, whether lactate is the main factor in TCM responsible for Olfr78-mediated M2 macrophage polarization, the prevent inventors treated WT BMDMs with TCM of mouse tumor cell lines pretreated with oxamic acid (OA), an inhibitor of lactate dehydrogenase that prevents lactate production. […] Up-regulation of M2 markers was attenuated (P<0.05) in WT BMDMs treated with lactate-depleted TCM (TCM+OA). […]

## CC(O)C(=O)[O-].[Na+] (stereo not drawn) [sodium lactate]
Olfr78/Gpr132
  Relative luciferase activity: significantly higher

## lactate
[1]; FIG. 2 legend
  M2 polarization of THP-1 human monocytes: induces M2 polarization
[1]
  M1 markers such as iNOS, CD86, TNF-α, and IL-12B: did not up-regulate M2 markers such as Arg-1, CD163, CD206, and IL-10 (FIGS. 3D-H) or down-regulate M1 markers
  M2 markers such as Arg-1, CD163, CD206, and IL-10: did not up-regulate
[1]; THP-1 cells vs untreated, FIGS. 2D, 2E
  iNOS levels: decreased
[1]; THP-1 cells
  protein and mRNA levels of OR51E2: significantly (P<0.01) increased
  levels of M2 macrophage markers such as Arg1, CD206, CD163, and IL-10: increased
[1]; THP-1 cells, FIGS. 2I-K
  levels of M1 macrophage markers such as CD86, TNF-α, and IL-12B: did not affect
BMDMs
  Olfr78 expression: significantly increased
BMDMs; Gpr132-depleted Olfr78−/− BMDMs, FIGS. 6G-I
  mRNA levels of IL-4, IL-10, and TGF-β (lactate-induced): further reduced
BMDMs; Gpr132-depleted WT BMDMs, FIGS. 6G-J
  Lactate-induced up-regulation of mRNA levels of M2 cytokines such as IL-4, IL-10, TGF-β, and Arg1: significantly (P<0.01) reduced
BMDMs; Olfr78−/− BMDMs vs untreated, FIGS. 1C-I
  M2-specific and M1-specific markers: did not exhibit up-regulation of M2-specific markers or down-regulation of M1-specific markers
BMDMs; WT BMDMs vs untreated, FIG. 1C
  protein level of CD206 (M2 marker): dramatically (P<0.001) higher
BMDMs; WT BMDMs vs untreated, FIG. 1D
  protein level of CD86 (M1 marker): significantly lower
BMDMs; WT BMDMs vs untreated, FIGS. 1E-G
  mRNA levels of IL-4, IL-10, and TGF-β (M2 markers): dramatically (P<0.001) higher
BMDMs; WT BMDMs vs untreated, FIGS. 1H and 1I
  mRNA levels of IL-12 and IFN-γ (M1 markers): significantly lower
BMDMs; WT BMDMs vs untreated, FIGS. 4B-E
  M2 polarization markers, such as CD206, IL-4, IL-10, and TGF-0: significant up-regulation
BMDMs; WT BMDMs vs untreated, FIGS. 4F, 4G
  percentage of cells with an elongated shape: increase

## CC(=O)O [acetate]
BMDMs; Olfr78−/− BMDMs, FIGS. 4H-J
  M2 polarization: did not induce M2 polarization
BMDMs; WT BMDMs, FIGS. 4H-J
  mRNA levels of M2 markers such as IL-4, IL-10, and TGF-β: significantly (P<0.001) increased

## NC(=O)C(=O)O [OA, oxamic acid]
Lactate dehydrogenase
  lactate in TCM: almost completely depleted

B1: IL-4: recombinant interleukin-4 used to stimulate M2 polarization (protein, UniProt P05112 25-153, looked up)
Interleukin-4: HKCDITLQEIIKTLNSLTEQKTLCTELTVTDIFAASKNTTEKETFCRAATVLRQFYSHHEKDTRCLGATAQQFHRHKQLIRFLKRLDRNLWGLAGLNSCPVKEANQSTLENFLERLKTIMREKYSKCSS
[1]
  M1 markers such as iNOS, CD86, TNF-α, and IL-12B: down-regulated
  M2 markers such as Arg-1, CD163, CD206, and IL-10: still up-regulated
[1]; THP-1 cells
  protein and mRNA levels of OR51E2: significantly (P<0.01) increased
  levels of M2 macrophage markers such as Arg1, CD206, CD163, and IL-10: increased
BMDMs
  Olfr78 expression: significantly increased
BMDMs; Olfr78−/− BMDMs, FIG. 1C
  CD206: still up-regulated
BMDMs; Olfr78−/− BMDMs, FIG. 1D
  CD86: down-regulated
BMDMs; WT BMDMs vs untreated, FIG. 1C
  protein level of CD206 (M2 marker): up-regulated
BMDMs; WT BMDMs vs untreated, FIG. 1D
  protein level of CD86 (M1 marker): down-regulated
